# Source: US11186585B2 (priority 2018, dated 2021)
# “And” between values parts separate entries of the source, which are not always exact repeats. Equal entries are not always repeated. “Also recorded” adds a separate entry of the source. Marks after values point to notes of the source that are not given here.
# How the values were obtained:
# [1] = test system: Human recombinant opiate receptor (mu, kappa or delta); test: Human recombinant opiate receptor panel, overall profile in words; format: cell-based; conditions: CHO-K1 cells, cAMP
# Method: Human recombinant opiate receptor (mu, kappa or delta) expressed in CHO-K1 cells were used. Test compound (NB-33)/or vehicle was incubated with the cells (4×10E5/mL) in modified HBSS pH 7.4 buffer at […] for 30 min. The reaction was evaluated for cAMP levels by TR-FRET. Compounds were screened at 0.3, 1 and 3 uM. by Eurofins Pharma Discovery Services.
# Human recombinant opiate receptor (mu, kappa or delta) expressed in CHO-K1 cells were used. Test compound (NX-90)/or vehicle was incubated with the cells (4×10E5/mL) in modified HBSS pH 7.4 buffer at […] for 30 min. The reaction was evaluated for cAMP levels (cAMP and/or calcium flux) by TR-FRET. Compounds were screened at 0.1, 0.3 and 1 uM by Eurofins Pharma Discovery Services.
# healthy volunteers [2] = test: Double-blind trial, heat pain threshold (hot water at 50° C.) after oral capsule; format: in vivo, human; conditions: for % MPE (analgesia): oral, individual data, 33 45 mg, NB 35 mg, 39 68 mg
# Method: Double-blind, NB hydrochloride and NB-39 controlled, trial of the antinociceptive effect of oral NB-33 in healthy volunteers. […] Each week a healthy volunteer would receive a pill from the assigned set in a random fashion and take it orally. […]
# (§1) Following one week of a wash out period, each volunteer repeated the protocol until all pills from the assigned set were administered. The individual data for heat pain threshold as % MPE=[(test latency−baseline latency)/(baseline latency)]×100 and for miosis as % MPE=[(test diameter−baseline diameter)/(baseline diameter)]×100 are shown in Table 2 and Table 3 respectively.
# (§2) Independent samples t-test was used to compare the means of % MPE analgesia and miosis in the two pairs of samples: NB-33 and NB and NB-33 and NB-39. All analyses were made using SPSS (v.25). • Bold indicates statistical significance at α=0.05
# [3] = Stability in the simulated gastro-intestinal fluid (sGIF); conditions: 0.5% pepsine in 0.1N aqueous HCl, 37° C.; acceptance: NLT 80% of the derivative still intact after 4 hrs
# Sprague-Dawley rats = test: Antinociceptive activity, cold ethanol tail-flick test after oral gavage; format: in vivo, rat; conditions: for Analgesia (rat): oral gavage in sesame oil, 60 uM/kg, one dose, tail-flick at −20° C., cutoff 40 seconds
# [4] = Stability in human plasma; conditions: 37° C., acceptance criteria: NLT than 20% of hydrolysis after 4 hrs
# healthy volunteers [5] = test: Double-blind trial, miosis after oral capsule; format: in vivo, human; conditions: for % MPE (miosis): oral, individual data, 33 45 mg, NB 35 mg, 39 68 mg
# Method: Double-blind, NB hydrochloride and NB-39 controlled, trial of the antinociceptive effect of oral NB-33 in healthy volunteers. Each of the three healthy volunteers was assigned a set of 6 non-transparent gelatin capsules as follows: 2×NB hydrochloride (MW=393.4; 39 mg), 2×NB-33 (MW=451.6; 45 mg) and 2×NB-39 (MW=680.0; 68 mg). Each week a healthy volunteer would receive a pill from the assigned set in a random fashion and take it orally. At T=0 hr, 0.25 hr, 0.5 hr, 1 hr, 1.5 hr, 2 hr, 3 hr and 5 hr followed oral administration a heat pain threshold was measured (hot water at 50° C.) as well as miosis.
# as §1, §2
# rats = test: Randall-Selitto test after SC dose; format: in vivo, rat; conditions: for Randall-Selitto (g), individual animal: NB.HCl 3 mg/kg; for Randall-Selitto (g), individual animal / Randall-Selitto (g), Mean: NB-33.HCl 3.9 mg/kg; for Randall-Selitto (g), Mean: mean of 5, NB.HCl 3 mg/kg
# Text: FIG. 13 illustrate in the graphical form the results for 1310 NB-33, marked 1310, in comparison to the base NB compound NB, marked 1320 in FIG. 13.
compound,measurement,setting,value
"C/C=C/C=C/C(=O)Oc1ccc2c3c1OC1C(O)CCC4(O)C(C2)N(CC2CCC2)CCC314 (stereo not drawn) [NB-33, 3-(cyclobutylmethyl)-4a,7-dihydroxy-2,3,4,4a,5,6,7,7a-octahydro-1H-4,12-methanobenzofuro[3,2-e]isoquinolin-9-yl (2E,4E)-hexa-2,4-dienoate]","pharmacological profile at opiate receptors, in words",[1],not a pharmacologically inert compound
same,% MPE (analgesia),healthy volunteers [2]; 0 hr (baseline),0.0 % MPE
same,% MPE (analgesia),healthy volunteers [2]; 0.25 hr,0.0 % MPE (2×) and 8.3 % MPE and 3.7 % MPE and 31.3 % MPE and 30.0 % MPE
same,% MPE (analgesia),healthy volunteers [2]; 0.5 hr,19.2 % MPE and 24.0 % MPE and 66.7 % MPE and 48.1 % MPE and 37.5 % MPE (2×)
same,% MPE (analgesia),healthy volunteers [2]; 1 hr,100.0 % MPE and 80.0 % MPE and 183.3 % MPE and 59.3 % MPE and 50.0 % MPE and 67.5 % MPE
same,% MPE (analgesia),healthy volunteers [2]; 1.5 hr,115.4 % MPE and 140.0 % MPE and 87.5 % MPE and 114.8 % MPE and 68.8 % MPE and 97.5 % MPE
same,% MPE (analgesia),healthy volunteers [2]; 2 hr,111.5 % MPE and 124.0 % MPE and 191.7 % MPE and 185.2 % MPE and 81.3 % MPE and 157.5 % MPE
same,% MPE (analgesia),healthy volunteers [2]; 2.5 hr,119.2 % MPE and 96.0 % MPE and 112.5 % MPE (2×) and 133.3 % MPE and 31.3 % MPE
same,% MPE (analgesia),healthy volunteers [2]; 3 hr,157.7 % MPE and 60.0 % MPE and 45.8 % MPE and 118.5 % MPE and 25.0 % MPE and 27.5 % MPE
same,% MPE (analgesia),healthy volunteers [2]; 5 hr,115.4 % MPE and 24.0 % MPE and 20.8 % MPE and 44.4 % MPE and 18.8 % MPE and 22.5 % MPE
same,"analgesia in humans, in words","healthy volunteers [2]; given orally, compared with equivalent dose of Nalbuphine (NB) and NB-39",superior
same,Stable in sGIF,[3],Yes
same,"analgesia in rats, in words","Sprague-Dawley rats; given orally, compared with equivalent dose of Nalbuphine (parent opioid)",excellent and superior results; also recorded: better analgesia than the parent opioid
same,Analgesia (rat),Sprague-Dawley rats,Excellent
same,Stable in plasma,[4],No
same,% MPE (miosis),healthy volunteers [5]; 0 hr (baseline),0.0 % MPE
same,% MPE (miosis),healthy volunteers [5]; 0.25 hr,26.7 % MPE and −8.8 % MPE and 0.3 % MPE and 20.0 % MPE and 0.0 % MPE and −5.0 % MPE
same,% MPE (miosis),healthy volunteers [5]; 0.5 hr,26.7 % MPE (3×) and 3.4 % MPE and 33.3 % MPE and −6.3 % MPE
same,% MPE (miosis),healthy volunteers [5]; 1 hr,40.4 % MPE (2×) and 24.0 % MPE and 42.2 % MPE and 33.9 % MPE and 26.7 % MPE
same,% MPE (miosis),healthy volunteers [5]; 1.5 hr,46.2 % MPE and 20.6 % MPE and 36.5 % MPE (2×) and 42.2 % MPE and 33.9 % MPE
same,% MPE (miosis),healthy volunteers [5]; 2 hr,55.9 % MPE and 37.8 % MPE and 46.2 % MPE (2×) and 42.2 % MPE and 42.9 % MPE
same,% MPE (miosis),healthy volunteers [5]; 2.5 hr,65.7 % MPE and 46.4 % MPE and 63.7 % MPE and 29.5 % MPE and 33.9 % MPE and 46.2 % MPE
same,% MPE (miosis),healthy volunteers [5]; 3 hr,29.0 % MPE and 3.4 % MPE and 36.5 % MPE (2×) and 15.6 % MPE and 25.0 % MPE
same,% MPE (miosis),healthy volunteers [5]; 5 hr,32.1 % MPE and 3.4 % MPE and 36.5 % MPE and 9.3 % MPE and 17.2 % MPE and 33.7 % MPE
same,"effect on pupil dilation (miosis) in humans, in words",healthy volunteers [5]; oral administration,superior; also recorded: significant effect
same,"analgesic properties vs equimolar dose of the parent opioid NB, in words (Graph 1, FIG. 13)","rats; Randall-Selitto, rats",superior analgesic properties
"C/C=C/C=C/C(=O)Oc1ccc2c3c1OC1C(O)CCC4(O)C(C2)N(CC2CCC2)CCC314.Cl (stereo not drawn) [NB-56, 3-(cyclobutylmethyl)-9-(((2E,4E)-hexa-2,4-dienoyl)oxy)-4a,7-dihydroxy-2,3,4,4a,5,6,7,7a-octahydro-1H-4,12-methanobenzofuro[3,2-e]isoquinolin-3-ium chloride]",Stable in sGIF,[3],Yes
same,Analgesia (rat),Sprague-Dawley rats,No
same,Stable in plasma,[4],No
same,"Randall-Selitto (g), individual animal",rats; Post-dose 0.5 hr,121 g and 120 g and 207 g and 161 g and 96 g
same,"Randall-Selitto (g), Mean",rats; Post-dose 0.5 hr,141.0* g
same,"Randall-Selitto (g), individual animal",rats; Post-dose 1 hr,98 g and 103 g and 199 g and 73 g and 86 g
same,"Randall-Selitto (g), Mean",rats; Post-dose 1 hr,111.8 g
same,"Randall-Selitto (g), individual animal",rats; Post-dose 2 hr,99 g and 94 g and 214 g and 102 g and 85 g
same,"Randall-Selitto (g), Mean",rats; Post-dose 2 hr,118.8 g
same,"Randall-Selitto (g), individual animal",rats; Post-dose 4 hr,83 g and 71 g and 136 g and 63 g and 97 g
same,"Randall-Selitto (g), Mean",rats; Post-dose 4 hr,90.0 g
same,"Randall-Selitto (g), individual animal",rats; Post-dose 6 hr,79 g and 64 g and 101 g and 65 g and 85 g
same,"Randall-Selitto (g), Mean",rats; Post-dose 6 hr,78.8 g
same,"Randall-Selitto (g), individual animal",rats; Pre-treatment (baseline),93 g and 82 g and 98 g and 80 g and 96 g
same,"Randall-Selitto (g), Mean",rats; Pre-treatment (baseline),89.8 g
"C=CCN1CCC23c4c5ccc(OC(=O)/C=C/C=C/C)c4OC2C(=O)CCC3(O)C1C5 (stereo not drawn) [NX-90, 3-allyl-4a-hydroxy-7-oxo-2,3,4,4a,5,6,7,7a-octahydro-1H-4,12-methanobenzofuro[3,2-e]isoquinolin-9-yl (2E,4E)-hexa-2,4-dienoate]","pharmacological profile at opiate receptors, in words",[1],not a pharmacologically inert compound
